Values of other authors in patent US20180368457A1 (Petiva Private Limited, priority 2015, published 2018).
Values belong to the compound of their own block, whether it stands above or below them.

Assays:
[1] = in vivo
[2] = intravenously administered, within 6 hours of treatment
[3] = storage temperature 25° C., relative humidity approximately 85%

Compound: O=C(CO)[C@H](O)[C@H](O)[C@H](O)CO [allulose, D-Psicose]
solubility: high solubility
glycemic index, in words [1]: low glycemic index
excreted in the urine [2]: approximately 98%

water pick-up on storage [3]: No significant water pick-up
Compound: OCC1O[C@H](OC[C@H]2O[C@](O)(CO)C(O)C2O)C(O)C(O)[C@@H]1O (stereo partly shown) [isomaltulose, Isomaltulose]
glycemic index, in words [1]: very low GI

Compound: OC[C@H]1O[C@](O)(CO[C@H]2O[C@H](CO)[C@@H](O)[C@H](O)[C@H]2O)[C@@H](O)[C@@H]1O [trehalulose, 1-O-α-D-glucopyranosyl-β-D-fructofuranose]
solubility: more soluble in water than its structural isomers sucrose
glycemic index, in words [1]: less glycemic
